Patent publication US8865623B2, “Herbicidally active cyclic diones and derivatives thereof, processes for their preparation, compositions, and method of controlling weeds” (Syngenta Limited, priority 2009, dated 2014)

Assays:
Assay type in all cases: in vivo
[1] = tested on: Echinochloa crus-galli (ECHCG); assay: Post-emergence herbicidal activity, glasshouse pot test; details: Echinochloa crus-galli, 312 h, rate 250 g/ha, evaluated after 13 days, glasshouse, read-out: Post-emergence activity ECHCG (100=total damage to plant; 0=no damage to plant)
Summary of the method: (§1)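 Seeds sown in standard soil in pots were sprayed 1 day after sowing (pre-emergence) or after 8 days' cultivation (post-emergence) with aqueous spray from acetone/water (50:50) formulation containing 0.5% Tween 20. Plants grew at 24/16° C day/night, 14 h light, 65% humidity, watered twice daily. Damage scored after 13 days, 0–100.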

[2] = tested on: Alopecurus myosuroides (ALOMY); assay: as above; details: Alopecurus myosuroides, 312 h, rate 250 g/ha, evaluated after 13 days, glasshouse, read-out: Post-emergence activity ALOMY (100=total damage to plant; 0=no damage to plant)
Summary of the method: as §1

Lolium perenne (LOLPE) [3] = assay: as above; details: Lolium perenne, 312 h, rate 250 g/ha, evaluated after 13 days, glasshouse, read-out: Post-emergence activity LOLPE (100=total damage to plant; 0=no damage to plant)
Summary of the method: as §1

Avena fatua (AVEFA) [4] = assay: as above; details: Avena fatua, 312 h, rate 250 g/ha, evaluated after 13 days, glasshouse, read-out: Post-emergence activity AVEFA (100=total damage to plant; 0=no damage to plant)
Summary of the method: as §1

[5] = tested on: Echinochloa crus-galli (ECHCG); assay: Pre-emergence herbicidal activity, glasshouse pot test; details: Echinochloa crus-galli, 312 h; Rate 250 g/ha; pre-emergence spray; evaluated after 13 days; read-out: Pre-emergence activity ECHCG (100=total damage to plant; 0=no damage to plant)
Summary of the method: as §1

[6] = tested on: Alopecurus myosuroides (ALOMY); assay: as above; details: Alopecurus myosuroides, 312 h; Rate 250 g/ha; pre-emergence spray; evaluated after 13 days; read-out: Pre-emergence activity ALOMY (100=total damage to plant; 0=no damage to plant)
Summary of the method: as §1

Lolium perenne (LOLPE) [7] = assay: as above; details: Lolium perenne, 312 h; Rate 250 g/ha; pre-emergence spray; evaluated after 13 days; read-out: Pre-emergence activity LOLPE (100=total damage to plant; 0=no damage to plant)
Summary of the method: as §1

Avena fatua (AVEFA) [8] = assay: as above; details: Avena fatua, 312 h; Rate 250 g/ha; pre-emergence spray; evaluated after 13 days; read-out: Pre-emergence activity AVEFA (100=total damage to plant; 0=no damage to plant)
Summary of the method: as §1

Row | Compound | pest or weed control at 250 g/ha [1] [%] | pest or weed control at 250 g/ha [2] [%] | pest or weed control at 250 g/ha (Lolium perenne (LOLPE) [3]) [%] | pest or weed control at 250 g/ha (Avena fatua (AVEFA) [4]) [%] | pest or weed control at 250 g/ha [5] [%] | pest or weed control at 250 g/ha [6] [%] | pest or weed control at 250 g/ha (Lolium perenne (LOLPE) [7]) [%] | pest or weed control at 250 g/ha (Avena fatua (AVEFA) [8]) [%]
1 | CCc1ccc(Oc2nc3ccc(Cl)cc3s2)cc1C1=C(O)C(C)(C)OC(C)(C)C1=O [Example A-106] | 90 | 90 | 80 | 50 | 90 | 60 | 100 | 20
2 | CCc1ccc(Oc2ncc(C(F)(F)F)cc2Cl)cc1C1=C(O)CC2(CCOCC2)CC1=O [Example A-272] | 100 | 90 | 70 | 90 | 100 | 100 | 100 | 100
3 | CCc1ccc(Oc2nc3ccc([N+](=O)[O-])cc3s2)cc1C1=C(O)CC2(CCOCC2)CC1=O [Example A-265] | 100 | 70 | 70 | 70 | 90 | 60 | 80 | 0
4 | CCc1ccc(Oc2nc3ccccc3cc2C)cc1C1=C(O)C(C)(C)OC(C)(C)C1=O [Example A-253] | 70 | 50 | 70 | 40 | 80 | 70 | 100 | 30
5 | CCc1ccc(Oc2ccc([N+](=O)[O-])c(C(F)(F)F)c2)cc1C1=C(O)C(C)(C)OC(C)(C)C1=O [Example A-197] | 100 | 70 | 60 | 70 | 30 | 0 | 20 | 10
6 | CCc1ccc(Oc2ccc(Br)cc2F)cc1C1=C(O)CC2(CCOCC2)CC1=O [Example A-25] | 100 | 90 | 90 | 100 | 90 | 70 | 80 | 80
7 | CCc1ccc(Oc2ccc(F)cc2)cc1C1=C(O)C(C)(C)OC(C)(C)C1=O [Example A-22] | 100 | 20 | 30 | 30 | 80 | 20 | 60 | 10
8 | CCc1ccc(Oc2ccc(C(F)(F)F)cc2Cl)cc1C1=C(O)C(C)(C)OC(C)(C)C1=O [Example A-99] | 100 | 80 | 80 | 90 | 100 | 60 | 100 | 30
9 | CCc1ccc(Oc2ccc(C#N)cc2F)cc1C1=C(O)CC(C)(C)CC1=O [Example A-87] | 80 | 70 | 40 | 40 | 60 | 30 | 40 | 20
10 | CCc1ccc(Oc2cnc3cc(Cl)ccc3n2)cc1C1=C(O)CC(C)(C)CC1=O [Example A-82] | 100 | 100 | 90 | 100 | 100 | 70 | 100 | 90
11 | CCc1ccc(Oc2ccc(Cl)cc2)cc1C1=C(O)CC(C)(C)CC1=O [Example A-26] | 100 | 80 | 70 | 40 | 100 | 70 | 80 | 40
12 | CCc1ccc(Oc2ccc(C(F)(F)F)c(C#N)c2)cc1C1=C(O)[C@H]2CC[C@H](C2)C1=O [Example A-340] | 100 | 60 | 70 | 80 | 100 | 80 | 70 | 50
13 | CCc1ccc(Oc2nc3ccc(OC)cc3s2)cc1C1=C(O)[C@H]2CC[C@H](C2)C1=O [Example A-343] | 100 | 50 | 80 | 80 | 100 | 50 | 100 | 50
14 | CCc1ccc(Oc2nc3cc(Cl)ccc3s2)cc1C1=C(O)CC2(CCOCC2)CC1=O [Example A-308] | 100 | 90 | 100 | 100 | 100 | 90 | 70 | 80
15 | CCc1ccc(Oc2ccc(C(F)(F)F)cc2[N+](=O)[O-])cc1C1=C(O)[C@H]2CC[C@H](C2)C1=O [Example A-344] | 90 | 60 | 70 | 90 | 100 | 40 | 80 | 30
16 | CCc1ccc(Oc2cccc(F)c2)cc1C1=C(O)C(C)(C)OC(C)(C)C1=O [Example A-58] | 80 | 0 | 0 | 0 | 70 | 0 | 0 | 0
17 | CCc1ccc(Oc2nc(OC)cc(OC)n2)cc1C1=C(O)C(C)(C)OC(C)(C)C1=O [Example A-127] | 30 | 0 | 10 | 0 | 0 | 0 | 0 | 0
18 | CC1(C)OC(C)(C)C(O)=C(c2cc(Oc3ccc(Cl)cc3)ccc2OC(F)(F)F)C1=O [Example A-302] | 100 | 60 | 70 | 50 | 60 | 10 | 20 | 40
19 | CCc1ccc(Oc2nc3ccc([N+](=O)[O-])cc3s2)cc1C1=C(O)[C@H]2CC[C@H](C2)C1=O [Example A-342] | 100 | 60 | 60 | 70 | 100 | 90 | 100 | 60
20 | CCc1ccc(Oc2ccc(C(F)(F)F)c(Cl)c2)cc1C1=C(O)[C@H]2CC[C@H](C2)C1=O [Example A-332] | 100 | 100 | 100 | 100 | 100 | 80 | 100 | 70
21 | CCc1ccc(Oc2nc3cc4c(cc3s2)OCCO4)cc1C1=C(O)C(C)(C)OC(C)(C)C1=O [Example A-215] | 40 | 10 | 20 | 0 | 20 | 0 | 0 | 0
